# Measurements published in patent US20240287138A1, “CYCLIC PEPTIDES FOR INHIBITING TNF RECEPTOR 1 ACTIVITY” (Merck Sharp & Dohme LLC, priority 2023, published 2024).
# pIC50: −log10 of the molar value. Numbered stars: 1 amine (or outer) side, 2 acyl side, 3 side chain; on linkers, the order of the positions; unused ones are H or OH. Bridge positions count the residues as written; N and C are the ends. Square brackets hold non-standard residues; d marks the D form. Peptide text beside a SMILES is read from it. Trp(βS-Me,7-OMe) = COc1cccc2c([C@H](C)[C@H](N)C(=O)O)c[nH]c12; X49 = C[N+](C)(C)CC(=O)N[C@H]1C[C@H](C(=O)[*:2])N([*:1])C1; Trp(1-CH2COOH) = N[C@@H](Cc1cn(CC(=O)O)c2ccccc12)C(=O)O; Trp(7-CN) = N#Cc1cccc2c(C[C@H](N)C(=O)O)c[nH]c12; Trp(7-Cl) = N[C@@H](Cc1c[nH]c2c(Cl)cccc12)C(=O)O; Phe(3-CONH2) = NC(=O)c1cccc(C[C@H](N)C(=O)O)c1; Phe(4-CONH2) = NC(=O)c1ccc(C[C@H](N)C(=O)O)cc1; Phe(4-COOH) = N[C@@H](Cc1ccc(C(=O)O)cc1)C(=O)O; Ala(thiazol-5-yl) = N[C@@H](Cc1cncs1)C(=O)O; X1 = O=C([C@@H]1CC[C@H](N[*:1])C1)[*:2]; Pip(4-aza) = O=C(O)[C@@H]1CNCCN1; 4Pal = N[C@@H](Cc1ccncc1)C(=O)O; NMeE = CN[C@@H](CCC(=O)O)C(=O)O; hLeu = CC(C)CC[C@H](N)C(=O)O; NMeS = CN[C@@H](CO)C(=O)O; αMeS = C[C@](N)(CO)C(=O)O; Nle = CCCC[C@H](N)C(=O)O; Sar = CNCC(=O)O
# Target: T1, TNFα-induced NF-κB signal transduction pathway (TNFR1 signaling) in THP-1 cells (Homo sapiens, UniProt P19438)
# T1 sequence (P19438 30-455): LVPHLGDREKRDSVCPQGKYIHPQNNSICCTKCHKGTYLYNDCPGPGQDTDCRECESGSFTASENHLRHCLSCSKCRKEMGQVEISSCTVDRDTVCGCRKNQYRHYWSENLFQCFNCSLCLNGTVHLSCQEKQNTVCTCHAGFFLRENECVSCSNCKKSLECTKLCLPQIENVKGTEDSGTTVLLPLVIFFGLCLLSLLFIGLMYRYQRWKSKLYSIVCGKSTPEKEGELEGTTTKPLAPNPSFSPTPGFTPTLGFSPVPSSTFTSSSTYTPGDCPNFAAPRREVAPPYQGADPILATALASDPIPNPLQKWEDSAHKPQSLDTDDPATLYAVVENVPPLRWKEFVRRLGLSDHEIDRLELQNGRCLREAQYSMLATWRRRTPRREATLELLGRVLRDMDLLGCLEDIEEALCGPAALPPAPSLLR
# Test: THP-1 Lucia NF-κB reporter cell assay, inhibition of TNFα-induced NF-κB signaling
# Format: cell-based
# Conditions: THP-1 NF-κB Lucia reporter cells, 10 ng/mL TNFα, 16-18 h, secreted luciferase; read-out: THP-1 IC50
# Description: C. Procedure for THP-1 Lucia NF-κB cells
# The inhibition of TNFα-induced NF-κB signal transduction pathways was evaluated in THP-1 cells. THP-1 cells harboring NF-κB-inducible Lucia™ reporter gene (InvivoGen, cat. #thp1-nfkb) designed for monitoring NF-κB signal transduction pathway was employed to assess the inhibitory effect macrocyclic peptides on TNFR1 signaling. The cells were cultured in media containing RPMI 1640, 2 mM L-glutamine, 25 mM HEPES, 10% heat-inactivated fetal bovine serum with appropriate selection antibiotics. Assays were performed in media that was devoid of selection antibiotics. For profiling, 125 nL of peptides in DMSO (10 mM) were dispensed into Falcon® 384-well Optilux white/clear flat bottom TC-treated microtest microplate (Corning, cat. #353963) using Echo® 555. […] A suspension of 1 million cells/mL was dispensed at 20 μL/well in a 384-well plate to a density of 20,000 cells/well and pre-incubated with peptides at 37° C. for 1 h. Subsequently, 5 μL of TNF containing media (recombinant human TNFα; R&D Systems USA, cat. #210-TA-005/CF) or TNF-free media (for controls) was added to the wells. The final concentration of TNFα in the assay in 10 ng/mL. After o.n. incubation at 37° C. (16-18 h), 5 μL of supernatant was aspirated and transferred to a 384-well microplate (PerkinElmer, cat. #6007680) for measurement of secreted luciferase activity with 25 μL of QUANTI-Luc™ luminescence assay reagent (InvivoGen, cat. #rep-qlc1) in each well. The luminescence was measured in EnVision® Multimode Plate Reader (PerkinElmer). Dose response curves were analyzed using a 4-parameter logistic model to calculate IC50 values, reported in Table 2, using TIBCO® Spotfire® software employing appropriate Minimum and Maximum controls.
row,SMILES,pIC50
1,"COc1cccc2c([C@H](C)[C@@H]3NC(=O)CN(C)C(=O)[C@H](Cc4ccc(O)cc4)NC(=O)[C@H](Cc4ccc(C(=O)O)cc4)NC(=O)[C@](C)(CO)NC(=O)[C@H](Cc4c[nH]c5c(Cl)cccc45)NC(=O)[C@H](Cc4ccncc4)NC(=O)[C@H](CC(N)=O)NC(=O)[C@H](CCC(=O)O)N(C)C(=O)[C@H](Cc4c[nH]c5ccccc45)NC(=O)[C@@H]4CNCCN4C(=O)[C@H](Cc4ccncc4)NC(=O)[C@H](CCC(C)C)NC(=O)[C@@H]4CC[C@@H](C4)NC3=O)c[nH]c12 [SEQ ID NO. 137] (cyclo([4Pal][Trp(7-Cl)][αMeS][Phe(4-COOH)]Y[Sar][Trp(βS-Me,7-OMe)][X1][hLeu][4Pal][Pip(4-aza)]W[NMeE]N))",8.89
2,"CCCC[C@@H]1NC(=O)[C@@H]2CC[C@@H](C2)NC(=O)[C@H]([C@@H](C)c2c[nH]c3c(OC)cccc23)NC(=O)CN(C)C(=O)[C@H](Cc2ccc(O)cc2)NC(=O)[C@H](Cc2ccc(C(=O)O)cc2)NC(=O)[C@](C)(CO)NC(=O)[C@H](Cc2c[nH]c3c(Cl)cccc23)NC(=O)[C@H](Cc2cncs2)NC(=O)[C@H](CC(N)=O)NC(=O)[C@H](CCC(=O)O)N(C)C(=O)[C@H](Cc2c[nH]c3ccccc23)NC(=O)[C@@H]2CNCCN2C(=O)[C@H](Cc2ccncc2)NC1=O [SEQ ID NO. 138] (cyclo([4Pal][Pip(4-aza)]W[NMeE]N[Ala(thiazol-5-yl)][Trp(7-Cl)][αMeS][Phe(4-COOH)]Y[Sar][Trp(βS-Me,7-OMe)][X1][Nle]))",8.70
3,"CCCC[C@@H]1NC(=O)[C@@H]2CC[C@@H](C2)NC(=O)[C@H]([C@@H](C)c2c[nH]c3c(OC)cccc23)NC(=O)CN(C)C(=O)[C@H](Cc2ccc(C(=O)O)cc2)NC(=O)[C@H](Cc2ccc(C(N)=O)cc2)NC(=O)[C@](C)(CO)NC(=O)[C@H](Cc2c[nH]c3c(C#N)cccc23)NC(=O)[C@H](Cc2ccc(C(=O)O)cc2)NC(=O)[C@H](CC(N)=O)NC(=O)[C@H]2C[C@H](NC(=O)C[N+](C)(C)C)CN2C(=O)[C@H](Cc2cn(CC(=O)O)c3ccccc23)NC(=O)[C@@H]2CNCCN2C(=O)[C@H](Cc2ccncc2)NC1=O [SEQ ID NO. 139] (cyclo([4Pal][Pip(4-aza)][Trp(1-CH2COOH)][X49]N[Phe(4-COOH)][Trp(7-CN)][αMeS][Phe(4-CONH2)][Phe(4-COOH)][Sar][Trp(βS-Me,7-OMe)][X1][Nle]))",9.00
4,"CCCC[C@@H]1NC(=O)CSC[C@@H](C(N)=O)NC(=O)[C@H]([C@@H](C)c2c[nH]c3c(OC)cccc23)NC(=O)CN(C)C(=O)[C@H](Cc2cccc(C(N)=O)c2)NC(=O)[C@H](Cc2ccc(C(=O)O)cc2)NC(=O)[C@](C)(CO)NC(=O)[C@H](Cc2c[nH]c3c(Cl)cccc23)NC(=O)[C@H](Cc2ccncc2)NC(=O)[C@H](CC(N)=O)NC(=O)[C@H](CCC(=O)O)N(C)C(=O)[C@H](Cc2c[nH]c3ccccc23)NC(=O)[C@H](CO)N(C)C(=O)[C@H](Cc2ccncc2)NC1=O [SEQ ID NO. 270] ({CH2CO}-[Nle][4Pal][NMeS]W[NMeE]N[4Pal][Trp(7-Cl)][αMeS][Phe(4-COOH)][Phe(3-CONH2)][Sar][Trp(βS-Me,7-OMe)]C-NH2; thioether N-14)",8.66
